These results are taken from patent US6900200B2, “Tricyclic hydroxy carboxamides and derivatives thereof tocolytic oxytocin receptor antagonists” (Wyeth, priority 2001, dated 2005).

The structures appear in SMILES notation.

One test addresses T1, human oxytocin receptor (Homo sapiens, UniProt P30559).
T1 construct: host or cells: CHO cells, pcDNA3.1 vector
T1 sequence (P30559 1-389): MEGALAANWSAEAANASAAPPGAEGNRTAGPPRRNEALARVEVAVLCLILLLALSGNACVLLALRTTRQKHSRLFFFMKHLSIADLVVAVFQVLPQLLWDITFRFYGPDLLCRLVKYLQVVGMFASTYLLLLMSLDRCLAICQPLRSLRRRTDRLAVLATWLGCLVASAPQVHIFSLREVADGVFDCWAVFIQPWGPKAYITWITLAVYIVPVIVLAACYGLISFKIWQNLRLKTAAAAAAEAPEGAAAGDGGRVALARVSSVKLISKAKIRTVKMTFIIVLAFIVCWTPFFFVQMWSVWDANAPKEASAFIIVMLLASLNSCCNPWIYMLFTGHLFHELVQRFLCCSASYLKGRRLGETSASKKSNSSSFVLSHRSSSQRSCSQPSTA
Kind of test: Oxytocin binding in CHO cell membranes expressing human oxytocin receptors ([3H]oxytocin radioligand binding). The conditions noted are these: @ 100 nM, read-out: OT % inhibition @ 100 nM. An excerpt: Oxytocin Binding in Chinese Hamster Ovary Cell Membranes Expressing Human Oxytocin Receptors
Chinese Hamster Ovary (CHO) cells stably transfected with the human oxytocin receptor (cf. Tanizawa et al., U.S. Pat. No. 5,466,584 (1995) to Rohto Pharmaceutical Co. Ltd., Osaka, Japan) were obtained from M. Thibonnier, Case Western Reserve University School of Medicine, Cleveland, Ohio.
A. Passaging and Amplification of Cells
CHO cells transfected with the human oxytocin receptors obtained from M. Thibonnier (pcDNA3.1 vector) are allowed to grow to confluency (approx. >90%) in T-150 flasks under sterile conditions, in a cell culture medium of F-12 Nutrient Mixture (HAM) with L-glutamine (Gibco Cat. #11765-054) containing 15 mM HEPES (Gibco Cat. #15630-080), 1% antibiotic/antimycotic (add 5 mL 100×, Gibco Cat. #15240-062 per 500 mL F-12), 400 μg/mL of Geneticin (add 4 mL of 50 mg/mL per 500 mL F-12) and 10% Fetal Bovine Serum (Qualified, heat inactivated, Gibco Cat. #16140-063). The medium is removed by aspiration and the cells are washed with 10 mL of Hank's Balanced Salt solution (Gibco Cat. #14175-095). The salt solution is removed by aspiration and the cells trypsinized with 5 mL of trypsin-EDTA (0.05% trypsin, 0.53 mM EDTA-4Na, Gibco Cat. #25300-070) for 1 min. The trypsin is removed by aspiration and the cells dislodged by tapping. Cell Culture medium (e.g. 30 mL for 1:30 split) is immediately added and mixed well to inactivate trypsin. 1 mL of detached cells is added to new culture flasks containing fresh Cell Culture medium (e.g. into 25 mL per T-150 flask), and mixed gently. The cells are incubated at 37° C. in 5% CO2. The medium is changed at 3 to 4 days interval (or as appropriate). The cells grow to confluency (approx. >75%-95%) within 7-8 days. All steps are done under sterile conditions.
The cells are washed twice gently with Hank's Balanced Salt solution (e.g., use 10 mL per T-1 50 flask). The excess solution is removed and the cells bathed for 15-30 min. in an enzyme-free Cell Dissociation Buffer (e.g., use 8 mL Hank's Based, Gibco Cat. #13150-016 per T-150 flask) until cells are loosened. The contents are transferred to centrifuge tubes (50 mL size) kept in ice bath. All subsequent steps are done at 4° C. The tubes are centrifuged at 300×g for 15 min (1380 rpm on SORVAL, Model RT6000D, using rotor for 50 mL tubes). The supernatant is discarded and the cells suspended in homogenizing buffer (10 mM Tris-HCl containing 0.25 M sucrose and 1 mM EDTA, pH 7.4) ensuring that the volume of the buffer is about ten times the volume of the cell pellet. The cells are pooled into a centrifuge tube (50 mL) and homogenized with a Polytron at setting 6 for 10 sec. The homogenate is transferred into a Potter-Elvjehm homogenizer and homogenized with 3 strokes. The homogenate is centrifuged at 1500×g for 10 min at 4° C. (3100 rpm using SORVAL, model RT6000D, using rotor for 50 mL tubes). The pellet is discarded. The supernatant is centrifuged at 100,000×g for 60 min. at 4° C. (Beckman L8-80M ultracentrifuge; spin at 37,500 rpm with rotor type 70 Ti for 50 mL tubes; 38,000 rpm with type 80Ti for 15 mL tubes; or 35,800 rpm with rotor type 45Ti). The supernantant is discarded and the pellet suspended in 3 to 4 mL of Tris buffer (50 mM TRIS—HCl, pH 7.4). The protein content is estimated by the Bradford or Lowry method. The volume of the membrane suspension is adjusted with the membrane buffer (50 mM Tris-HCl containing 0.1% BSA and 0.1 mM PMSF) to give 3.0 mg/mL (or as appropriate) of protein. The membranes are aliquoted and stored at −70° C.
C. Radioligand Binding Assay
In wells of a 96-well format microtiter plate, is added 90, 110 or 130 μL (to make up a final volume of 200 μL) of assay buffer containing 50 mM of Tris-HCl (pH 7.4), […], 1 mg % aprotinin, 1 mg % leupeptin, 2 mg % 1,10-phenanthroline, 10 mg % trypsin inhibitor, and 0.1 mM PMSF. […]
On to `Cc1cc(C(=O)N2Cc3ccc(C(=O)N4CCN(CCO)CC4)n3Cc3ccccc32)ccc1-c1ccccc1C(F)(F)F` [Example 48, [4-(2-Hydroxyethyl)-1-piperazinyl](10-{[2-methyl-2′-(trifluoromethyl)[1,1′-biphenyl]-4-yl)carbonyl}-10,11-dihydro-5H-pyrrolo[2,1-c][1,4]benzodiazepin-3-yl)methanone], for which the inhibition at 0.1 µM is 79%.
Turning to `COc1cc(C(=O)N2Cc3ccc(C(=O)N4CCN(CCO)CC4)n3Cc3ccccc32)ccc1-c1ccccc1C` [Example 42, [4-(2-Hydroxyethyl)-1-piperazinyl]{10-[(2-methoxy-2′-methyl[1,1′-biphenyl]-4yl)carbonyl]-10,11-dihydro-5H-pyrrolo[2,1-c][1,4]benzodiazepin-3-yl}methanone], the inhibition at 0.1 µM is 89%.
Still for that read-out and setting: the figure for `COc1cccc(-c2ccc(C(=O)N3Cc4ccc(C(=O)N5CCN(CCO)CC5)n4Cc4ccccc43)cc2OC)c1` [Example 50, {10-[(2,3′-Dimethoxy[1,1′-biphenyl]-4-yl)carbonyl]-10,11-dihydro-5H-pyrrolo[2,1-c][1,4]benzodiazepin-3-yl}[4-(2-hydroxyethyl)-1-piperazinyl]methanone] is 83%; for `COc1ccccc1-c1ccc(C(=O)N2Cc3ccc(C(=O)N4CCN(CCO)CC4)n3Cc3ccccc32)cc1` [Example 47, [4-(2-Hydroxyethyl)-1-piperazinyl]{10-[(2′-methoxy[1,1′-biphenyl]-4-yl)carbonyl]-10,11-dihydro-5H-pyrrolo[2,1-c][1,4]benzodiazepin-3-yl}methanone] it is 55%; for `Cc1ccccc1-c1ccc(C(=O)N2Cc3ccc(C(=O)N4CCN(CCO)CC4)n3Cc3ccccc32)cc1` [Example 45, [4-(2-Hydroxyethyl)-1-piperazinyl]{10-[(2′-methyl[1,1′-biphenyl]-4-yl)carbonyl]-10,11-dihydro-5H-pyrrolo[2,1-c][1,4]benzodiazepin-3-yl}methanone] it is 87%.
With `COc1ccccc1-c1ccc(C(=O)N2Cc3ccc(C(=O)N(C)C[C@H](O)CO)n3Cc3ccccc32)cc1C` (single isomer, unassigned) [Example 15], the inhibition at 0.1 µM was found to be 101%.
For the molecule `COc1cccc(-c2cc(OC)c(C(=O)N3Cc4ccc(C(=O)N5CCN(CCO)CC5)n4Cc4ccccc43)cc2Cl)c1` [Example 49, {10-[(6-Chloro-3,3′-dimethoxy[1,1′-biphenyl]-4-yl)carbonyl]-10,11-dihydro-5H-pyrrolo[2,1-c][1,4]benzodiazepin-3-yl}[4-(2-hydroxyethyl)-1-piperazinyl]methanone], the inhibition at 0.1 µM came out at 81%.

Staying with this test, now noted: value printed in parentheses, read-out: OT (IC50).
For `CC(=O)OCC(CN(C)C(=O)c1ccc2n1Cc1ccccc1N(C(=O)c1ccc(-c3ccccc3C(F)(F)F)c(C)c1)C2)OC(C)=O` (stereo not drawn) [Example 13, 2-(Acetyloxy)-1-({methyl[(10-{[2-methyl-2′-trifluoromethyl-[1,1′-biphenyl]-4-yl]carbonyl}-10,11-dihydro-5H-pyrrolo[2,1-c][1,4]benzodiazepin-3-yl)carbonyl]amino}methyl)ethyl acetate], the IC50 came to 9.16 nM.
Regarding `Cc1cc(C(=O)N2Cc3ccc(C(=O)N4CCN(C[C@H](O)CO)CC4)n3Cc3ccccc32)ccc1-c1ccccc1C(F)(F)F` [Example 5, (2S)-3-{4-[(10-{[2-Methyl-2′-trifluoromethyl-[1,1′-biphenyl]-4-yl]carbonyl}-10,11-dihydro-5H-pyrrolo[2,1-c][1,4]benzodiazepin-3-yl)carbonyl]piperazin-1-yl}propane-1,2-diol], the concentration for half-maximal inhibition (IC50) was 35.8 nM.
As to `Cc1cc(C(=O)N2Cc3ccc(C(=O)N4CCN(C[C@@H](O)CO)CC4)n3Cc3ccccc32)ccc1-c1ccccc1C(F)(F)F` [Example 6, (2R)-3-{4-[(10-{[2-Methyl-2′-trifluoromethyl-[1,1′-biphenyl]-4-yl]carbonyl}-10,11-dihydro-5H-pyrrolo[2,1-c][1,4]benzodiazepin-3-yl)carbonyl]piperazin-1-yl}propane-1,2-diol], the IC50 amounted to 25.1 nM.
For the molecule `COc1cc(-c2ccccc2C(F)(F)F)c(Cl)cc1C(=O)N1Cc2ccc(C(=O)N(C)C[C@H](O)[C@@H](O)[C@H](O)[C@H](O)CO)n2Cc2ccccc21` [Example 20, 10-{[6-Chloro-3-methoxy-2′-trifluoromethyl-[1,1′-biphenyl]-4-yl]carbonyl}-N-methyl-N-[(2S,3R,4R,5R)-2,3,4,5,6-pentahydroxyhexyl]-10,11-dihydro-5H-pyrrolo[2,1-c][1,4]benzodiazepine-3-carboxamide], the half-inhibitory concentration (IC50) was 1.09 nM.
Same read-out and setting: the figure for `COc1cc(C(=O)N2Cc3ccc(C(=O)N(C)C[C@@H](O)[C@H](O)[C@H](O)[C@@H](O)CO)n3Cc3ccccc32)ccc1-c1ccccc1C(F)(F)F` (stereo in doubt) [Example 23, 10-{[2-Methoxy-2′-trifluoromethyl-[1,1′-biphenyl]-4-yl]carbonyl}-N-methyl-N-[(2R,3S,4R,5S)-2,3,4,5,6-pentahydroxyhexyl]-10,11-dihydro-5H-pyrrolo[2,1-c][1,4]benzodiazepine-3-carboxamide] is 4.09 nM; for `COc1ccccc1-c1ccc(C(=O)N2Cc3ccc(C(=O)N(C)CC(O)CO)n3Cc3ccccc32)cc1C` (stereo not drawn) [Example 14, 10-[(2′-Methoxy-2-methyl-[1,1′-biphenyl]-4-yl)carbonyl]-10,11-dihydro-5H-pyrrolo[2,1-c][1,4]benzodiazepine-3-carboxylic acid (2,3-dihydroxy-propyl)-methyl-amide] it is 1.9 nM; for `Cc1cc(C(=O)N2Cc3ccc(C(=O)N(C)CC4COC(=O)O4)n3Cc3ccccc32)ccc1-c1ccccc1C(F)(F)F` (stereo not drawn) [Example 11, 10-[(2-Methyl-2′-trifluoromethyl-[1,1′-biphenyl]-4-yl)carbonyl]-10,11-dihydro-5H-pyrrolo[2,1-c][1,4]benzodiazepine-3-carboxylic acid methyl-[(2-oxo-[1,3]dioxolan-4-yl)methyl]-amide] it is 3.66 nM.
With `COC[C@@H](O)CN1CCN(C(=O)c2ccc3n2Cc2ccccc2N(C(=O)c2ccc(-c4ccccc4C(F)(F)F)c(C)c2)C3)CC1` [Example 9, [3-({4-[(2S)-2-Hydroxy-3-methoxypropyl]-1-piperazinyl}carbonyl)-5H-pyrrolo[2,1-c][1,4]benzodiazepin-10(11H)-yl][2-methyl-2′-trifluoromethyl-[1,1′-biphenyl]-4-yl]methanone], the IC50 turned out to be 26.7 nM.

Broadly, the inhibition is the drop in the measured response relative to a control, in per cent. As usually defined, the IC50 is the concentration needed to halve the response being measured.
